“Also recorded” adds a separate entry of the source.
Tests used:
[1] = test system: MDA-MB-468, HCC70 and patient-derived xenograft; experiment: In vivo activity in three different models of TNBC; parameters: species or system mice; conditions: three TNBC models; MEHD7945A 10 mg/kg i.p. twice weekly, GDC-0068 40 mg/kg, GDC-0941 75 mg/kg oral once daily
Experimental: (§1) Several TNBC cell lines were treated with MEHD7945A, a dual-action antibody that targets both EGFR and HER3, AKT inhibitor GDC-0068, and pan-PI3K inhibitor GDC -0941. Cell viability was measured by CellTiter-Glo and Crystal Violet. Both cell line- and patient -derived xenograft models of TNBC were treated with MEHD7945A, GDC-0068, GDC-0941, or the combination of MEHD7945A with either GDC-0068 or GDC-0941. Tumor size and histology were examined. Protein expression was measured by Western blot, Mass Spectometry, CEER and immunohistochemistry.
To test the activity of these compounds in vivo, three different models of TNBC were used: two cell line (MDA-MB-468 and HCC70)-based and a patient-derived xenograft.
All mouse studies were conducted through institutional Animal Care and Use Committee (IACUC) approved animal protocols in accordance with institutional guidelines. Six-week-old female athymic nude mice were purchased from Charles River Laboratories and housed in air-filtered laminar flow cabinets with a 12-hour light cycle and food and water ad libitum.
(§2) For cell line-derived xenograft studies, mice were injected subcutaneously with 1×10^7 HCC70 or MDA-MB-468 suspended in 150 μL culture media/Matrigel (BD Biosciences) in a 4:1 ratio. One μmol/L of 17β-estradiol was supplemented in the mouse drinking water as described (Garcia-Garcia et al., Clinical cancer research: an official journal of the American Association for Cancer Research 18, 2603 (2012)).
(§3) For patient-derived xenograft (PDX) studies, tumors were subcutaneously implanted in 6-week old female athymic nude mice. Upon xenograft growth, tumor tissue was reimplanted into recipient mice, which were randomized upon implant growth. For the collection of circulating tumor cells (CTCs), tumors were implanted into the mammary pad of athymic nude mice.
(§4) Once tumors reached an average volume of about 150-250 mm^3, mice were randomized into treatment arms, with n=7-11 tumors/group. GDC-0068 [40 mg/kg] or GDC-0941 [75 mg/kg] were dissolved in 0.5% methylcellulose and 0.2% Tween-80 (MCT) solution and administered once daily via oral gavage. […] Tumors were measured by digital caliper over the entire treatment period. Tumor volume was determined using the formula: (length×width^2)×(π/6). Tumor volumes are plotted as means±SEM.

EGFR and HER3 = experiment: CEER analysis of active and total EGFR and HER3 in xenograft tumors; assay type: in vivo, mice; conditions: for active and total levels of HER3 and EGFR (CEER): TNBC PDX, tumors harvested 2 h after the last drug administration
Experimental: The levels of EGFR and HER3 expression/activation in HCC70 tumors collected at the end of the experiments (day 39) was investigated. […] Frozen tissue was analyzed by Cooperative, Enhanced, Enzyme Immunoreactive (CEER), a platform that utilizes reverse-phase detection of nanogram quantities of protein.
The levels of pathway protein expression and their activation in xenografts were determined by CEER. (Kim et al., ASCO Annual Meeting abstract P2-06-13, (2010)) CEER utilizes the formation of unique immuno-complexes between capture antibodies printed on a nitrocellulose microarray surface, the target molecule in cell lysate reacted with the slide, and two independent detector-antibodies. One of the detector-antibody is conjugated to glucose oxidase, and the other is conjugated to horseradish peroxidase. Target detection (expressed as computational unit, CU) requires the presence of both detector-antibodies and the enzyme channeling event between glucose oxidase and horseradish peroxidase will not occur unless both antibodies are in close proximity.

[2] = test system: patient-derived xenografts (PDX) of TNBC; experiment: Patient-derived xenograft tumor growth; assay type: in vivo, mice; conditions: MEHD7945A 10 mg/Kg twice weekly, GDC-0941 75 mg/Kg daily, GDC-0068 40 mg/kg daily
Experimental: The activity of the same treatments in patient-derived xenografts (PDX) of TNBC was then tested.
as §3, §4

[3] = test system: MDA-MB-468- and HCC70-derived xenografts; experiment: Cell line-derived xenograft tumor growth; assay type: in vivo, mice; conditions: MDA-MB-468 and HCC70 xenografts; p less than 0.01 combination vs monotherapy
Experimental: To expand these findings in vivo, the efficacy of MEHD7945A was tested in combination with either the Akt or PI3K inhibitor in both MDA-MB-468- and HCC70-derived xenografts.
as §2, §4

TNBC cell lines = experiment: Cell viability by CellTiter-Glo and Crystal Violet; assay type: cell-based; conditions: across all TNBC cell lines; read-out: IC50s, inhibition of cell viability
Experimental: as §1
(§5) For proliferation, 5×10^5 cells were seeded in 96-well plates and treated with the indicated concentrations of GDC-0068, GDC-0941, and/or MEHD7945A. After 5 days, cells were fixed and stained with Crystal Violet. Cell proliferation was also analyzed with CellTiter-Glo Luminescent Cell Viability Assay (Promega) as described by the manufacturer. For heregulin (HRG, Peprotech) and epidermal growth factor (EGF, Peprotech)-induced proliferation, 5×10^5 cells were treated with GDC-0068, GDC-0941, and/or MEHD7945A in the presence of 4 ng/ml of ligands for 5 days and then stained with Crystal Violet.

[4] = test system: EGFR, HER3 and downstream signaling pathways; experiment: Western blot of EGFR, HER3 and downstream signaling in cells; assay type: cell-based; conditions: 24 hours, 1 uM; for expression of HER3: HCC70 and MDA-MB-468 cells; for activation of EGFR and HER3: HCC70 cells
Experimental: HCC70 and MDA-MB-468 TNBC cell lines, characterized by elevated levels of EGFR and loss of PTEN expression, were treated with GDC-0068, GDC-0941, MEHD7945A, and the combinations of these inhibitors.
Cells were washed with ice-cold phosphate buffered saline (PBS) and scraped into ice-cold RIPA lysis buffer (Cell Signaling) supplemented with phosphatase inhibitor cocktails (Complete Mini, and PhosphoStop (Roche)). Lysates were cleared by centrifugation at 13,000 rpm for 10 minutes at 4° C., supernatants removed and assayed for protein concentration using the Pierce BCA Protein Assay Kit (Thermo Scientific). Thirty-five micrograms of total lysate was resolved on NuPAGE 4-12% Bis-Tris gels (Life Technologies) and electrophoretically transferred to Immobilon transfer membranes (Millipore). Membranes were blocked for 1 hour in 5% nonfat dry milk in TBS-Tween and then hybridized using the following primary antibodies in 5% bovine serum albumin (BSA) TBS-Tween: phospho-Akt (Ser473), phospho-Akt (Thr308), Akt, phospho-S6 (Ser(240/4), phospho-S6 (Ser235/6), S6, phospho-PRAS40 (Thr246), PRAS40, phospho-Erk (Thr202/Tyr204), Erk, phospho-EGFR (Tyr1068), EGFR, phospho-HER3 (Tyr1289), HER3 (1:500-1:1000, Cell Signaling). Beta-actin was used as a loading control (1:5000, Sigma), also in 5% BSA TBS-Tween. Mouse and rabbit horseradish peroxidase (HRP)-conjugated secondary antibodies (1:50,000, Amersham Biosciences) were diluted in 2% nonfat dry milk in TBS-Tween. Protein—antibody complexes were detected by chemiluminescence with SuperSignal West FemtoChemiluminescent Substrate (Thermo Scientific) and images were captured with a G-BOX camera system.

[5] = test system: HCC70 and MDA-MB-468 cells; experiment: Five days proliferation analysis (Crystal Violet / CellTiter-Glo); assay type: cell-based; conditions: 5 days; MEHD7945A 10 nM, GDC-0068 and GDC-0941 1 uM
Experimental: Whether the combination of MEHD7945A with GDC-0068 or GDC-0941 would result in enhanced antiproliferative activity was tested in both HCC70 and MDA-MB-468 cells.
as §5

[6] = HCC70 tumors collected at day 39

Structure (SMILES) | tumor growth [1] | EGFR and HER3 expression and phosphorylation (CEER) (EGFR and HER3; [6]) | total EGFR receptor levels (CEER) (EGFR and HER3; [6]) | active and total levels of HER3 and EGFR (CEER) (EGFR and HER3) | tumor growth [2] | tumor growth inhibition [3] | IC50 (TNBC cell lines) [nM] | expression of HER3 [4] | activation of EGFR and HER3 [4] | inhibition of cell proliferation/viability [5]
CC(C)NC[C@@H](C(=O)N1CCN(c2ncnc3c2[C@H](C)C[C@H]3O)CC1)c1ccc(Cl)cc1 [GDC-0068] | variable delay in tumor growth | overall increase of both EGFR and HER3 expression and phosphorylation | no changes in the total receptor levels were observed | increased; also recorded: lower ability to induce EGFR and HER3 phosphorylation | superior antitumor activity compared with GDC-0941 | responded only modestly | ≥ 170 | increased expression of HER3 | activation of both EGFR and HER3 | varying sensitivity
CS(=O)(=O)N1CCN(Cc2cc3nc(-c4cccc5[nH]ncc45)nc(N4CCOCC4)c3s2)CC1 [GDC-0941, 4-(2-(1H-indazol-4-yl)-6-((4-(methylsulfonyl)piperazin-1-yl)methyl)thieno[3,2-d]pyrimidin-4-yl)morpholine] | variable delay in tumor growth | overall increase of both EGFR and HER3 expression and phosphorylation |  | increased | delayed tumor growth | responded only modestly | ≥ 170 | increased expression of HER3 | activation of both EGFR and HER3 | varying sensitivity
